Source: US20250262201A1, “COMPOUNDS AND METHODS USEFUL FOR STABILIZING PHENYLALANINE HYDROXYLASE MUTATIONS” (Agios Pharmaceuticals, Inc., priority 2022, published 2025)

Molecular target: T1, human PAH with the R408W mutation (Homo sapiens, UniProt P00439, R408W)
T1 construct: expressed in transfected cells
T1 sequence (P00439 1-452 R408W): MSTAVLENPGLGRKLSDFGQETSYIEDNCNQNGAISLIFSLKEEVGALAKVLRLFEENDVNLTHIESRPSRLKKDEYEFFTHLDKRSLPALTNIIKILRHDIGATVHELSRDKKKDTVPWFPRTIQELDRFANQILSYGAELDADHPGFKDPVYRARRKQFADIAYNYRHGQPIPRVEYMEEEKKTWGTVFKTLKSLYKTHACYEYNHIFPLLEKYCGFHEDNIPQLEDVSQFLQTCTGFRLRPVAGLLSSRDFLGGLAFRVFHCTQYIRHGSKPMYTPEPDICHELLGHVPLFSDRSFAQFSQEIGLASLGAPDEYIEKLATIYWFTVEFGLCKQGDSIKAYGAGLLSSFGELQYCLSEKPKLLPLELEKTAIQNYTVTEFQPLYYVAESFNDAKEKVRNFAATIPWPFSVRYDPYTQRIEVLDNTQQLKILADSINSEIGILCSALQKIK
Test: Cell Based Phenylalanine Flux Assay
Set-up: scale not given here
Settings: A375 R408W cells, 24 hrs with compound, then 20 μM sepiapterin and 800 μM 13C9,15N-Phenylalanine for 4 hours; 13C-Tyrosine by LC-MS; average where tested multiple times

Row | AC50 | SMILES
1 | E, E | Cc1nnc(CC(=O)N2CCc3[nH]cnc3C2c2cn3ccccc3n2)o1 (centres unmarked)

Same assay, conditions: A375 R408W cells, 24 hrs with compound, then 20 μM sepiapterin and 800 μM 13C9,15N-Phenylalanine for 4 hours; 13C-Tyrosine by LC-MS; average where tested multiple times; read-out: AC50

Row | AC50 [nM] | SMILES
2 | > 5000 | CN(C)Cc1ccc2c(C(=O)N3CC(C)(C)c4[nH]cnc4C3c3cc4ccccc4cn3)cnn2c1 (centres unmarked)
3 | > 5000 | FC(F)c1nnc(N2CCc3[nH]cnc3C2c2cc3ccccc3cn2)o1 (centres unmarked)
4 | 1000 to 5000 | O=C(c1nnc(COC(F)(F)F)o1)N1CCc2[nH]cnc2C1c1ccc2ccccc2n1 (centres unmarked)
5 | > 5000 | Cc1nc(N2CCOCC2)oc1C(=O)N1CCc2[nH]cnc2C1c1ccc2ccccc2n1 (centres unmarked)
6 | > 5000 | CC(C)(O)c1cc(C(=O)N2CCc3[nH]cnc3C2c2ccc3ccccc3n2)no1 (centres unmarked)
7 | 1000 to 5000 | O=C(c1nnc(N2CC(F)C2)o1)N1CCc2[nH]cnc2C1c1ncc2ccccc2n1 (centres unmarked)
8 | > 5000 | O=C(c1nnc(CCO)o1)N1CCc2[nH]cnc2C1c1ccc2ccccc2n1 (centres unmarked)
9 | 1000 to 5000 | CC(C)(O)c1ncc(C(=O)N2CCc3[nH]cnc3C2c2ccc3ccccc3n2)o1 (centres unmarked)
10 | 1000 to 5000 | Cc1nc(C2CCN2)oc1C(=O)N1CCc2[nH]cnc2C1c1ccc2ccccc2n1 (centres unmarked)
11 | 1000 to 5000 | COCc1nnc(C(=O)N2CCc3[nH]cnc3C2c2ccc3ccccc3n2)o1 (centres unmarked)
12 | 1000 to 5000 | CC(C)(F)c1ncc(C(=O)N2CCc3[nH]cnc3C2c2cn3ccccc3n2)o1 (centres unmarked)
13 | 1000 to 5000 | O=C(c1nnc(C2CC2)o1)N1CCc2[nH]cnc2C1c1cc2ccccc2nn1 (centres unmarked)

Same assay, conditions: A375 cells expressing human R408W PAH; 24 hrs compound incubation; 13C-Tyrosine by LC-MS; average where tested multiple times; read-out: AC50

Row | SMILES | AC50 [nM]
14 | CC(C)(O)c1nc(Cl)c(C(=O)N2CCc3[nH]cnc3C2c2ccc3ccccc3n2)o1 (stereo in doubt) [Example 114, (S)-(4-chloro-2-(2-hydroxypropan-2-yl)oxazol-5-yl)(4-(quinolin-2-yl)-6,7-dihydro-1H-imidazo[4,5-c]pyridin-5(4H)-yl)methanone] | > 5000
15 | O=C(c1ccnn1C(F)F)N1CCc2[nH]cnc2C1c1ccc2ccccc2n1 (stereo in doubt) [Example 82, (S)-(1-(difluoromethyl)-1H-pyrazol-5-yl)(4-(quinolin-2-yl)-6,7-dihydro-1H-imidazo[4,5-c]pyridin-5(4H)-yl)methanone] | > 5000
16 | Cn1nccc1C(=O)N1CCc2[nH]cnc2C1c1ccc2ccccc2n1 (stereo in doubt) [Example 94, (S)-(1-methyl-1H-pyrazol-5-yl)(4-(quinolin-2-yl)-6,7-dihydro-1H-imidazo[4,5-c]pyridin-5(4H)-yl)methanone] | 1000 to 5000
17 | O=C(c1nnc(-c2ncccc2F)o1)N1CCc2[nH]cnc2C1c1ccc2ccccc2n1 (stereo in doubt) [Example 89, (R)-(5-(3-fluoropyridin-2-yl)-1,3,4-oxadiazol-2-yl)(4-(quinolin-2-yl)-6,7-dihydro-1H-imidazo[4,5-c]pyridin-5(4H)-yl)methanone] | < 500
18 | Cn1ncnc1C(=O)N1CCc2[nH]cnc2C1c1ccc2ccccc2n1 (stereo in doubt) [Example 80, (2-methyl-1,2,4-triazol-3-yl)-[(4R)-4-(2-quinolyl)-1,4,6,7-tetrahydroimidazo[4,5-c]pyridin-5-yl]methanone] | 500 to 1000

More lines, now with the values ahead:

Row | AC50 [nM] | SMILES
19 | < 500 | FC(F)(F)c1cnc(N2CCc3[nH]cnc3[C@H]2c2cn3ccccc3n2)nc1 [Example 231, (R)-4-(imidazo[1,2-a]pyridin-2-yl)-5-(5-(trifluoromethyl)pyrimidin-2-yl)-4,5,6,7-tetrahydro-1H-imidazo[4,5-c]pyridine]
20 | < 500 | Cc1ccc(-c2nnc(C(=O)N3CCc4[nH]cnc4[C@H]3c3cc4ccccc4cn3)o2)nc1 [Example 439, (R)-(4-(isoquinolin-3-yl)-6,7-dihydro-1H-imidazo[4,5-c]pyridin-5(4H)-yl)(5-(5-methylpyridin-2-yl)-1,3,4-oxadiazol-2-yl)methanone]
21 | 500 to 1000 | Cc1nc(-c2ccccn2)oc1C(=O)N1CCc2[nH]cnc2[C@H]1c1cc2ccccc2nn1 [Example 208, (S)-(4-(cinnolin-3-yl)-6,7-dihydro-1H-imidazo[4,5-c]pyridin-5(4H)-yl)(4-methyl-2-(pyridin-2-yl)oxazol-5-yl)methanone]
22 | 500 to 1000 | O=C(c1nnc(-c2cn[nH]c2)o1)N1CCc2[nH]cnc2[C@H]1c1cc2ccccc2cn1 [Example 454, (R)-(5-(1H-pyrazol-4-yl)-1,3,4-oxadiazol-2-yl)(4-(isoquinolin-3-yl)-6,7-dihydro-1H-imidazo[4,5-c]pyridin-5(4H)-yl)methanone]
23 | < 500 | CC(O)c1nc(Br)c(C(=O)N2CCc3[nH]cnc3[C@H]2c2ccc3ccccc3n2)o1 (single isomer, unassigned) [Example 133]
24 | < 500 | Cn1cc(-c2nnc(C(=O)N3CCc4[nH]cnc4[C@H]3c3cc4ccccc4cn3)o2)cn1 [Example 322, (R)-(4-(isoquinolin-3-yl)-6,7-dihydro-1H-imidazo[4,5-c]pyridin-5(4H)-yl)(5-(1-methyl-1H-pyrazol-4-yl)-1,3,4-oxadiazol-2-yl)methanone]
25 | < 500 | O=C(c1n[nH]c2ccccc12)N1CCc2[nH]cnc2[C@H]1c1cc2ccccc2cn1 [Example 359, (3a,7a-dihydro-1H-indazol-3-yl)((R)-4-(isoquinolin-3-yl)-6,7-dihydro-1H-imidazo[4,5-c]pyridin-5(4H)-yl)methanone]
26 | < 500 | O=C(c1cnn2cc(-c3ccncn3)ccc12)N1CCc2[nH]cnc2[C@H]1c1cc2ccccc2cn1 [Example 476, (R)-(4-(isoquinolin-3-yl)-6,7-dihydro-1H-imidazo[4,5-c]pyridin-5(4H)-yl)(6-(pyrimidin-4-yl)pyrazolo[1,5-a]pyridin-3-yl)methanone]
27 | < 500 | CN(C)c1ccc2c(C(=O)N3CCc4[nH]cnc4[C@H]3c3cc4ccccc4cn3)cnn2c1 [Example 470, (R)-(6-(dimethylamino)pyrazolo[1,5-a]pyridin-3-yl)(4-(isoquinolin-3-yl)-6,7-dihydro-1H-imidazo[4,5-c]pyridin-5(4H)-yl)methanone]
28 | > 5000 | O=C(c1ocnc1C(F)(F)F)N1CCc2[nH]cnc2[C@@H]1c1cn2ccccc2n1 [Example 233, (S)-(4-(imidazo[1,2-a]pyridin-2-yl)-6,7-dihydro-1H-imidazo[4,5-c]pyridin-5(4H)-yl)(4-(trifluoromethyl)oxazol-5-yl)methanone]
29 | < 500 | O=C(c1oc(C2(O)CC2)nc1C(F)F)N1CCc2[nH]cnc2C1c1ccc2ccccc2n1 (stereo in doubt) [Example 130, (R)-(4-(difluoromethyl)-2-(1-hydroxycyclopropyl)oxazol-5-yl)(4-(quinolin-2-yl)-6,7-dihydro-1H-imidazo[4,5-c]pyridin-5(4H)-yl)methanone]
30 | 500 to 1000 | O=C(CCc1nccs1)N1CCc2[nH]cnc2C1c1ccc2ccccc2n1 (stereo in doubt) [Example 271, (R)-1-(4-(quinolin-2-yl)-6,7-dihydro-1H-imidazo[4,5-c]pyridin-5(4H)-yl)-3-(thiazol-2-yl)propan-1-one]
31 | < 500 | O=C(c1nnc(-c2ncccn2)o1)N1CCc2[nH]cnc2[C@H]1c1cc2ccccc2cn1 [Example 473, (R)-(4-(isoquinolin-3-yl)-6,7-dihydro-1H-imidazo[4,5-c]pyridin-5(4H)-yl)(5-(pyrimidin-2-yl)-1,3,4-oxadiazol-2-yl)methanone]
32 | 1000 to 5000 | O=C(C1CC1)N1CCc2[nH]cnc2[C@H]1c1cc2ccccc2nn1 [Example 215, (S)-(4-(cinnolin-3-yl)-6,7-dihydro-1H-imidazo[4,5-c]pyridin-5(4H)-yl)(cyclopropyl)methanone]
33 | 500 to 1000 | O=C(c1cnc(-c2ccccn2)s1)N1CCc2[nH]cnc2[C@H]1c1cc2ccccc2nn1 [Example 205, (S)-(4-(cinnolin-3-yl)-6,7-dihydro-1H-imidazo[4,5-c]pyridin-5(4H)-yl)(2-(pyridin-2-yl)thiazol-5-yl)methanone]
34 | < 500 | O=C(c1cnn2ccccc12)N1CCc2[nH]cnc2[C@H]1c1cn2ccccc2n1 [Example 225, (R)-(4-(imidazo[1,2-a]pyridin-2-yl)-6,7-dihydro-1H-imidazo[4,5-c]pyridin-5(4H)-yl)(pyrazolo[1,5-a]pyridin-3-yl)methanone]
35 | 500 to 1000 | O=C(c1cnco1)N1CCc2[nH]cnc2[C@H]1c1ccc2ccccc2c1 [Example 283, (R)-(4-(naphthalen-2-yl)-6,7-dihydro-1H-imidazo[4,5-c]pyridin-5(4H)-yl)(oxazol-5-yl)methanone]
36 | < 500 | O=C(c1nnc(-c2ccccn2)o1)N1CCc2[nH]cnc2[C@H]1c1cc2ccccc2cn1 [Example 324, (R)-(4-(isoquinolin-3-yl)-6,7-dihydro-1H-imidazo[4,5-c]pyridin-5(4H)-yl)(5-(pyridin-2-yl)-1,3,4-oxadiazol-2-yl)methanone]
37 | < 500 | O=C(c1cnn2cc(N3CCOCC3)c(Cl)cc12)N1CCc2[nH]cnc2[C@H]1c1cc2ccccc2cn1 [Example 463, (R)-(5-chloro-6-morpholinopyrazolo[1,5-a]pyridin-3-yl)(4-(isoquinolin-3-yl)-6,7-dihydro-1H-imidazo[4,5-c]pyridin-5(4H)-yl)methanone]
38 | < 500 | CC(O)c1nc(Cl)c(C(=O)N2CCc3[nH]cnc3[C@H]2c2ccc3ccccc3n2)o1 (single isomer, unassigned) [Example 137]
